From ChEMBL document CHEMBL1150033, “The squalestatins: effects of changes at the allylic centre in the C1 sidechain” (Bioorg Med Chem Lett, 1994) come the findings set out here.

What is called IC50 is the point on the concentration scale where inhibition reaches its midpoint. Higher therefore signals weaker potency in that assay. The ED50 is the dose that gives a 50% effect, or the effect in half of the subjects. Lower therefore signals an effect at a small dose.

The target of one test is T1, Squalene synthase (Rattus norvegicus, UniProt Q02769).
T1 sequence (Q02769 whole entry): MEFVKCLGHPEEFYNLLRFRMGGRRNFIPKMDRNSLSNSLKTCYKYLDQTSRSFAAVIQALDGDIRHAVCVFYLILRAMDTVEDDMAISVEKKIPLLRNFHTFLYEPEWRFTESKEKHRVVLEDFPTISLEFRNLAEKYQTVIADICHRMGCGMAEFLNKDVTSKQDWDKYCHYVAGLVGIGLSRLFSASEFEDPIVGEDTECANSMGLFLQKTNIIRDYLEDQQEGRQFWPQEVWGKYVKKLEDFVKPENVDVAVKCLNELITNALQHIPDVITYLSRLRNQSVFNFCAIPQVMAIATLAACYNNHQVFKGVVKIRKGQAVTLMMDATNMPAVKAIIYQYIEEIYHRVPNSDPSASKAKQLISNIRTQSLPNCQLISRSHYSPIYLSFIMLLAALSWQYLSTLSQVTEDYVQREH
In words: Inhibitory concentration against mammalian Squalene synthase.
Settings: not given
`C=C(CC[C@]12O[C@H](C(=O)O)[C@@](O)(C(=O)O)[C@](C(=O)O)(O1)[C@H](O)[C@H]2O)[C@@H](O)[C@H](C)Cc1ccccc1`: the IC50 came to 252 nM.

`C=C(CC[C@]12O[C@H](C(=O)O)[C@@](O)(C(=O)O)[C@](C(=O)O)(O1)[C@H](O)[C@H]2O)[C@@H](OC)[C@H](C)Cc1ccccc1` gave an IC50 of 500 nM.

In turn, `C=CCO[C@H](C(=C)CC[C@]12O[C@H](C(=O)O)[C@@](O)(C(=O)O)[C@](C(=O)O)(O1)[C@H](O)[C@H]2O)[C@H](C)Cc1ccccc1` returned an IC50 of 27 nM.

For `C=C(CC[C@]12O[C@H](C(=O)O)[C@@](O)(C(=O)O)[C@](C(=O)O)(O1)[C@H](O)[C@H]2O)[C@H](NC(C)=O)[C@H](C)Cc1ccccc1`, the IC50 was over 10000 nM.

On to `C=C(CC[C@]12O[C@H](C(=O)O)[C@@](O)(C(=O)O)[C@](C(=O)O)(O1)[C@H](O)[C@H]2O)[C@@H](OC(=O)C(C)(C)C)[C@H](C)Cc1ccccc1`, for which the half-maximal inhibitory concentration (IC50) amounted to 2290 nM.

The compound `C=C(CC[C@]12O[C@H](C(=O)O)[C@@](O)(C(=O)O)[C@](C(=O)O)(O1)[C@H](OC(=O)/C=C/[C@@H](C)C[C@@H](C)CC)[C@H]2O)[C@@H](O)[C@H](C)Cc1ccccc1` yielded a half-inhibitory concentration (IC50) of 5 nM.

With `C=C(CC[C@]12O[C@H](C(=O)O)[C@@](O)(C(=O)O)[C@](C(=O)O)(O1)[C@H](O)[C@H]2O)[C@@H](OC(=O)c1ccccc1)[C@H](C)Cc1ccccc1`, the IC50 is 532 nM.

Compound `C=C(CC[C@]12O[C@H](C(=O)O)[C@@](O)(C(=O)O)[C@](C(=O)O)(O1)[C@H](O)[C@H]2O)[C@@H](OCC)[C@H](C)Cc1ccccc1` yielded a concentration for half-maximal inhibition (IC50) of 40 nM.

The compound `C#CCO[C@H](C(=C)CC[C@]12O[C@H](C(=O)O)[C@@](O)(C(=O)O)[C@](C(=O)O)(O1)[C@H](O)[C@H]2O)[C@H](C)Cc1ccccc1` yielded an IC50 of 1200 nM.

In turn, `CC(=O)NC/C(=C\[C@H](C)Cc1ccccc1)CC[C@]12O[C@H](C(=O)O)[C@@](O)(C(=O)O)[C@](C(=O)O)(O1)[C@H](O)[C@H]2O` returned a half-maximal inhibitory concentration (IC50) of over 10000 nM.

As to `C=C(CC[C@]12O[C@H](C(=O)O)[C@@](O)(C(=O)O)[C@](C(=O)O)(O1)[C@H](O)[C@H]2O)[C@@H](OCCC)[C@H](C)Cc1ccccc1`, half-maximal inhibition (IC50) was put at 600 nM.

`C=C(CC[C@]12O[C@H](C(=O)O)[C@@](O)(C(=O)O)[C@](C(=O)O)(O1)[C@H](O)[C@H]2O)[C@@H](OC(C)C)[C@H](C)Cc1ccccc1` came in with an IC50 of 49 nM.

In turn, `C=C(CC[C@]12O[C@H](C(=O)O)[C@@](O)(C(=O)O)[C@](C(=O)O)(O1)[C@H](O)[C@H]2O)[C@@H](OCc1ccccc1)[C@H](C)Cc1ccccc1` showed an IC50 of 1420 nM.

Turning to `C=C(CC[C@]12O[C@H](C(=O)O)[C@@](O)(C(=O)O)[C@](C(=O)O)(O1)[C@H](O)[C@H]2O)[C@@H](OCC1CC1)[C@H](C)Cc1ccccc1`, the IC50 was found to be 33 nM.

In turn, `C=C(CC[C@]12O[C@H](C(=O)O)[C@@](O)(C(=O)O)[C@](C(=O)O)(O1)[C@H](O)[C@H]2O)[C@@H](NC(C)=O)[C@H](C)Cc1ccccc1` gave a 50% inhibitory concentration (IC50) of 2220 nM.

`CC(=O)NC/C(=C\[C@@H](C)Cc1ccccc1)CC[C@]12O[C@H](C(=O)O)[C@@](O)(C(=O)O)[C@](C(=O)O)(O1)[C@H](O)[C@H]2O`: the 50% inhibitory concentration (IC50) is over 10000 nM.

System in a further test: not listed separately
In words: Lipid lowering ability after intravenous administration of 10 mg/Kg single dose. The test is classed as functional.
Settings: not given
In the case of `C=C(CC[C@]12O[C@H](C(=O)O)[C@@](O)(C(=O)O)[C@](C(=O)O)(O1)[C@H](O)[C@H]2O)[C@@H](OC(C)=O)[C@H](C)Cc1ccccc1`, the Lowering is on record as 30%.

System in a further test: not listed separately
In words: Percent decrease in serum cholesterol levels after intravenous administration of 1 mg/Kg dose for 7 days.
Settings: not given
Type of test: functional.
Take `C=C(CC[C@]12O[C@H](C(=O)O)[C@@](O)(C(=O)O)[C@](C(=O)O)(O1)[C@H](OC(=O)/C=C/[C@@H](C)C[C@@H](C)CC)[C@H]2O)[C@@H](OC(C)=O)[C@H](C)Cc1ccccc1` [ZARAGOZIC ACIDS A]: the Decrease is 60%.

System in a further test: not listed separately
As to the kind of experiment: Effective dose required for lipid lowering property in marmosets by oral administration for 7 days. Particulars: 168 h. The test is classed as functional.
`C=C(CC[C@]12O[C@H](C(=O)O)[C@@](O)(C(=O)O)[C@](C(=O)O)(O1)[C@H](OC(=O)/C=C/[C@@H](C)C[C@@H](C)CC)[C@H]2O)[C@@H](OC(C)=O)[C@H](C)Cc1ccccc1` [ZARAGOZIC ACIDS A]: the ED50 came to 10 mg/kg/day.
